Patent EP4748839A1 (CSPC Zhongqi Pharmaceutical Technology (Shijiazhuang) Co., …, priority 2023, dated 2025)

Biological target: T1, GLP-1R (Homo sapiens, UniProt P43220)
T1 construct: expressed in transfected cells
Assay: GLP-1R agonistic effect in GLP1R-cAmp-Luc cells (luciferase reporter; titled 'Enzymatic assay')
Format: cell-based
Settings: for EC50: 4 hours incubation, firefly luciferin signal; for EC50 of Positive reference / EC50 of Compound of the Present Application: Positive reference is PF-06882961
Description: The GLP-1R agonistic effects of the test compounds were determined using GLP1R-cAmp-Luc cells. 1) The test compound was dissolved in DMSO and mixed well until the test compound was completely dissolved. The test compounds were dissolved in DMSO to prepare 10 mM stock solutions. All compounds were diluted with DMEM medium (high sugar, Puromycin^+, Hygromycin B^+) to an initial concentration of 1250 nM, and then subjected to 5-fold serial dilution to a total of 7 concentration gradients. The GLP1R-cAmp-Luc cells were seeded in white-wall 96-well cell culture plates at a density of 1×10^5/mL, with 90 µL cell suspension per well; the test compound at each of the 7 concentration gradients was added at 10 µL per well, with the actual initial working concentration of 125 nM; and the cells were placed in a 37 °C, 5% CO2 cell incubator for 4 hours; 2) 100 µL of luciferin potassium salt solution diluted to 300 µg/mL in PBS was added to each well at a working concentration of 150 µg/mL and incubated at room temperature for 30 minutes; 3) fluorescence signals of firefly luciferin were measured with a multifunctional microplate reader (PerkinElmer, Nivo); and the fluorescence values were processed using GraphPad Prism software to calculate EC50 values.

T1 sequence (P43220 24-463, species assumed): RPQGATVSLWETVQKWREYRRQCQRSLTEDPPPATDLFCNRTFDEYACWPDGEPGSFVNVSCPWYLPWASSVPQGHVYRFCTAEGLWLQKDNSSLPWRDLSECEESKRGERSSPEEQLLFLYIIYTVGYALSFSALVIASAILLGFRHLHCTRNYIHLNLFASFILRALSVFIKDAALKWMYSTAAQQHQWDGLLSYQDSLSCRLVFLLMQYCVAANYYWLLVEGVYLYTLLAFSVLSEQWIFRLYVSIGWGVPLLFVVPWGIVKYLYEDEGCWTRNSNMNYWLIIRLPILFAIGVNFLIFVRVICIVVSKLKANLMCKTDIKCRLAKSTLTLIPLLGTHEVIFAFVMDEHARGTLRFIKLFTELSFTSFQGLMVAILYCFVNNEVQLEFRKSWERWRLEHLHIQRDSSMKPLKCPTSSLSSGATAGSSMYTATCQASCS

EC50 [nM] | EC50 of Positive reference / EC50 of Compound of the Present Application | Compound
5 to 10 | – | CC(c1ccc(-c2cccc(OCc3ccc(C#N)cc3F)n2)c2c1CCO2)c1nc2ccc(C(=O)O)cc2n1C[C@@H]1CCO1 (stereo partly drawn) [Compound 6, 2-(1-(7-(6-((4-cyano-2-fluorobenzyl)oxy)pyridin-2-yl)-2,3-dihydrobenzofuran-4-yl)ethyl)-1-(((S)-oxetan-2-yl)methyl)-1H-benzo[d]imidazole-6-carboxylic acid]
≤ 1 | Ratio ≥10 | COc1cc(C(=O)O)cc2c1nc(Cc1c(F)cc(-c3cccc(OCc4ccc(Cl)cc4F)n3)c3c1CCO3)n2C[C@@H]1CCO1 [Compound 81, (S)-2-((7-(6-((4-chloro-2-fluorobenzyl)oxy)pyridin-2-yl)-5-fluoro-2,3-dihydrobenzofuran-4-yl)methyl)-4-methoxy-1-(oxetan-2-ylmethyl)-1H-benzo[d]imidazole-6-carboxylic acid]
≤ 1 | – | O=C(O)c1ccc2nc(Cc3c(F)cc(-c4ccnc(OCc5ccc(Cl)cc5F)n4)c4c3CCO4)n(C[C@@H]3CCO3)c2c1 [Compound 124, (S)-2-((7-(2-((4-chloro-2-fluorobenzyl)oxy)pyrimidin-4-yl)-5-fluoro-2,3-dihydrobenzofuran-4-yl)methyl)-1-(oxetan-2-ylmethyl)-1H-benzo[d]imidazole-6-carboxylic acid]
1 to 5 | – | CCn1cncc1Cn1c(Cc2c(F)cc(-c3cccc(OCc4ccc(Cl)cc4F)n3)c3c2CCO3)nc2c(OC)cc(C(=O)O)cc21 [Compound 111]
≤ 1 | Ratio ≥10 | COc1cc(C(=O)O)cc2c1nc(Cc1c(F)cc(-c3nccc(OCc4ccc(Cl)cc4F)n3)c3c1CCO3)n2C[C@@H]1CCO1 [Compound 117, (S)-2-((7-(4-((4-chloro-2-fluorobenzyl)oxy)pyrimidin-2-yl)-5-fluoro-2,3-dihydrobenzofuran-4-yl)methyl)-4-methoxy-1-(oxetan-2-ylmethyl)-1H-benzo[d]imidazole-6-carboxylic acid]
1 to 5 | – | N#Cc1ccc(COc2cccc(-c3ccc(Cc4nc5ccc(C(=O)O)cc5n4C[C@@H]4CCO4)c4c3OCC4)n2)c(F)c1 [Compound 2, (S)-2-((7-(6-((4-cyano-2-fluorobenzyl)oxy)pyridin-2-yl)-2,3-dihydrobenzofuran-4-yl)methyl)-1-(oxetan-2-ylmethyl)-1H-benzo[d]imidazole-6-carboxylic acid]
1 to 5 | – | N#CCC1(Cn2c(Cc3c(Cl)cc(-c4cccc(OCc5ccc(C#N)cc5F)n4)c4c3CCO4)nc3ccc(C(=O)O)nc32)CC1 [Compound 19, 2-((5-chloro-7-(6-((4-cyano-2-fluorobenzyl)oxy)pyridin-2-yl)-2,3-dihydrobenzofuran-4-yl)methyl)-3-((1-(cyanomethyl)cyclopropyl)methyl)-3H-imidazo[4,5-b]pyridine-5-carboxylic acid]
≤ 1 | Ratio ≥10 | COc1cc(C(=O)O)cc2c1nc(Cc1c(F)cc(-c3ccnc(OCc4ccc(C)cc4F)n3)c3c1CCO3)n2C[C@@H]1CCO1 [Compound 133, (S)-2-((7-(2-((2-fluoro-4-methylbenzyl)oxy)pyrimidin-4-yl)-5-fluoro-2,3-dihydrobenzofuran-4-yl)methyl)-4-methoxy-1-(oxetan-2-ylmethyl)-1H-benzo[d]imidazole-6-carboxylic acid]
≤ 1 | Ratio ≥10 | CCOc1cc(C(=O)O)cc2c1nc(Cc1c(F)cc(-c3ccnc(OCc4ccc(Cl)cc4F)n3)c3c1CCO3)n2C[C@@H]1CCO1 [Compound 121, (S)-2-((7-(2-((4-chloro-2-fluorobenzyl)oxy)pyrimidin-4-yl)-5-fluoro-2,3-dihydrobenzofuran-4-yl)methyl)-4-ethoxy-1-(oxetan-2-ylmethyl)-1H-benzo[d]imidazole-6-carboxylic acid]
1 to 5 | – | O=C(O)c1ccc2nc(Cc3ccc(-c4cccc(OCc5ccc(Cl)cc5F)n4)c4[nH]ccc34)n(C[C@@H]3CCO3)c2c1 [Compound 9, (S)-2-((7-(6-((4-chloro-2-fluorobenzyl)oxy)pyridin-2-yl)-1H-indol-4-yl)methyl)-1-(oxetan-2-ylmethyl)-1H-benzo[d]imidazole-6-carboxylic acid]
≤ 1 | – | O=C(O)c1ccc2nc(Cc3c(F)cc(-c4cccc(OCc5ccc(Cl)cc5OC(F)F)n4)c4c3CCO4)n(C[C@@H]3CCO3)c2c1 [Compound 95, (S)-2-((7-(6-((4-chloro-2-(difluoromethoxy)benzyl)oxy)pyridin-2-yl)-5-fluoro-2,3-dihydrobenzofuran-4-yl)methyl)-1-(oxetan-2-ylmethyl)-1H-benzimidazole-6-carboxylic acid]
≤ 1 | Ratio ≥10 | N#Cc1ccc(COc2cccc(-c3cc(F)c(Cc4nc5c(F)cc(C(=O)O)cc5n4C[C@@H]4CCO4)c4c3OCC4)n2)c(F)c1 [Compound 13, (S)-2-((7-(6-((4-cyano-2-fluorobenzyl)oxy)pyridin-2-yl)-5-fluoro-2,3-dihydrobenzofuran-4-yl)methyl)-4-fluoro-1-(oxetan-2-ylmethyl)-1H-benzo[d]imidazole-6-carboxylic acid]
≤ 1 | Ratio ≥10 | COc1cc(C(F)(F)F)ccc1COc1cccc(-c2cc(F)c(Cc3nc4c(OC)cc(C(=O)O)cc4n3C[C@@H]3CCO3)c3c2OCC3)n1 [Compound 80, (S)-2-((5-fluoro-7-(6-((2-methoxy-4-(trifluoromethyl)benzyl)oxy)pyridin-2-yl)-2,3-dihydrobenzofuran-4-yl)methyl)-4-methoxy-1-(oxetan-2-ylmethyl)-1H-benzo[d]imidazole-6-carboxylic acid]
≤ 1 | Ratio ≥10 | COc1cc(C(F)(F)F)ccc1COc1nccc(-c2cc(F)c(Cc3nc4c(OC)cc(C(=O)O)cc4n3C[C@@H]3CCO3)c3c2OCC3)n1 [Compound 110, (S)-2-((7-(2-((2-methoxy-4-(trifluoromethyl)benzyl)oxy)pyrimidin-4-yl)-5-fluoro-2,3-dihydrobenzofuran-4-yl)methyl)-4-methoxy-1-(oxetan-2-ylmethyl)-1H-benzo[d]imidazole-6-carboxylic acid]
≤ 1 | Ratio ≥10 | COc1cc(C(=O)O)cc2c1nc(Cc1c(F)cc(-c3cccc(OCc4ccc(C#N)cc4F)n3)c3c1CCO3)n2C[C@@H]1CCO1 [Compound 100, (S)-2-((7-(6-((4-cyano-2-fluorobenzyl)oxy)pyridin-2-yl)-5-fluoro-2,3-dihydrobenzofuran-4-yl)methyl)-4-methoxy-1-(oxetan-2-ylmethyl)-1H-benzo[d]imidazole-6-carboxylic acid]
1 to 5 | – | O=C(O)c1ccc2nc(Cc3ccc(-c4cccc(OCc5ccc(Cl)cc5F)n4)c4c3CCC4=O)n(C[C@@H]3CCO3)c2c1 [Compound 20, (S)-2-((7-(6-((4-chloro-2-fluorobenzyl)oxy)pyridin-2-yl)-1-oxo-2,3-dihydro-1H-inden-4-yl)methyl)-1-(oxetan-2-ylmethyl)-1H-benzo[d]imidazole-6-carboxylic acid]
1 to 5 | – | COc1cc(C(=O)O)cc2c1nc(Cc1c(F)cc(-c3ccnc(OCc4ccc(Cl)cc4F)n3)c3c1CCO3)n2CC1(CF)CC1 [Compound 112, 2-((7-(2-((4-Chloro-2-fluorobenzyl)oxy)pyrimidin-4-yl)-5-fluoro-2,3-dihydrobenzofuran-4-yl)methyl)-1-((1-(fluoromethyl)cyclopropyl)methyl)-4-methoxy-1H-benzo[d]imidazole-6-carboxylic acid]
≤ 1 | – | COc1cc(C(F)(F)F)ccc1COc1cccc(-c2cc(F)c(Cc3nc4c(OCC(F)F)cc(C(=O)O)cc4n3CC3(CF)CC3)c3c2OCC3)n1 [Compound 79]
1 to 5 | Ratio ≥10 | CCOc1cc(C(=O)O)cc2c1nc(Cc1c(F)cc(-c3ccc(F)c(OCc4ccc(Cl)cc4F)n3)c3c1CCO3)n2C[C@@H]1CCO1 [Compound 122, (S)-2-((7-(6-((4-chloro-2-fluorobenzyl)oxy)-5-fluoropyridin-2-yl)-5-fluoro-2,3-dihydrobenzofuran-4-yl)methyl)-4-ethoxy-1-(oxetan-2-ylmethyl)-1H-benzo[d]imidazole-6-carboxylic acid]
1 to 5 | – | CC(C)Oc1cc(C(=O)O)cc2c1nc(Cc1c(F)cc(-c3ccnc(OCc4ccc(Cl)cc4F)n3)c3c1CCO3)n2C[C@@H]1CCO1 [Compound 119, (S)-2-((7-(2-((4-chloro-2-fluorobenzyl)oxy)-pyrimidin-4-yl)-5-fluoro-2,3-dihydrobenzofuran-4-yl)methyl)-4-isopropoxy-1-(oxetan-2-ylmethyl)-1H-benzo[d]imidazole-6-carboxylic acid]
≤ 1 | – | COc1cc(C(=O)O)cc2c1nc(Cc1c(F)cc(-c3ncc(F)c(OCc4ccc(C5COC5)cc4F)n3)c3c1CCO3)n2C[C@@H]1CCO1 [Compound 129, (S)-2-((7-(5-fluoro-4-((2-fluoro-4-(oxetan-3-yl)benzyl)oxy)pyrimidin-2-yl)-5-fluoro-2,3-dihydrobenzofuran-4-yl)methyl)-4-methoxy-1-(oxetan-2-ylmethyl)-1H-benzo[d]imidazole-6-carboxylic acid]
